# Measurements as given in the supplement of paper PMC4862054.
# Tested on: HDQ-P1
# Assay: normalised response (% of control), CellTiter-Glo; higher = more viable cells (100 = DMSO, 0 = benzethonium chloride kill control)
# Details: incubation time: 72 h
# Method in brief: (§1)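 Normalised signals at single concentrations make up the values. They come from breast cancer cell lines seeded (20 µl suspension) into 384-well plates with compound at 5 concentrations in 10-fold steps over a compound-specific 10,000-fold range, incubated 72 h, and read for CellTox Green fluorescence then CellTiter-Glo luminescence. Each plate was normalised to 0.1 % DMSO (100) and a positive kill control (0).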
row,Structure (SMILES),normalised response [%]
1,Oc1ncc(N(CCCl)CCCl)c(O)n1 [Uracil mustard] (1 nM),98.8
2,Nc1ccccc1NC(=O)c1ccc(CNC(=O)OCc2cccnc2)cc1 [Entinostat] (1 nM),102
3,C=CC(=O)Nc1cc2c(Nc3ccc(F)c(Cl)c3)ncnc2cc1OCCCN1CCOCC1 [Canertinib] (1 nM),98.8

# Tested on: HCC1599
# Assay: as above
# Details: incubation time: 72 h
# Method in brief: as §1
row,Structure (SMILES),normalised response [%]
1,C=CC(=O)N1CCC[C@@H](n2nc(-c3ccc(Oc4ccccc4)cc3)c3c(N)ncnc32)C1 [Ibrutinib] (0.1 nM),104
2,Nc1nc2[nH]cc(CCc3ccc(C(=O)N[C@@H](CCC(=O)O)C(=O)O)cc3)c2c(=O)[nH]1 [Pemetrexed] (1 nM),85.1
3,COc1cc2nccc(Oc3ccc(NC(=O)Nc4cc(C)on4)c(Cl)c3)c2cc1OC [Tivozanib] (1 nM),88.6
4,COc1cc2c(NC3CCN(C(C)C)CC3)nc(C3CCCCC3)nc2cc1OCCCN1CCCC1 [UNC0638] (1 nM),76.7
5,CNC(=O)c1cc(Oc2ccc(NC(=O)Nc3cc(C(C)(C)C)nn3-c3ccc4ncccc4c3)c(F)c2)ccn1 [Rebastinib] (0.1 nM),105
6,N#Cc1ccc(C(c2ccc(C#N)cc2)n2cncn2)cc1 [Letrozole] (1 nM),122
7,CC[C@H](Nc1ncnc2[nH]cnc12)c1nc2cccc(F)c2c(=O)n1-c1ccccc1 [GS-1101] (1 nM),96.3
8,O=C(O)C(=O)O.[NH-][C@@H]1CCCC[C@H]1[NH-].[Pt+2] [Oxaliplatin] (10 nM),95
9,C=CC(=O)Nc1cc2c(Nc3ccc(F)c(Cl)c3)ncnc2cc1OCCCN1CCOCC1 [Canertinib] (10 nM),93.8
10,CC(=O)Nc1cccc(-n2c(=O)n(C3CC3)c(=O)c3c(Nc4ccc(I)cc4F)n(C)c(=O)c(C)c32)c1 [Trametinib] (0.25 nM),99.7
11,C=CC(=O)N1CCC[C@@H](n2nc(-c3ccc(Oc4ccccc4)cc3)c3c(N)ncnc32)C1 [Ibrutinib] (1 nM),102
12,CCCCC(=O)OCC(=O)[C@]1(O)Cc2c(O)c3c(c(O)c2[C@@H](O[C@H]2C[C@H](NC(=O)C(F)(F)F)[C@H](O)[C@H](C)O2)C1)C(=O)c1c(OC)cccc1C3=O [Valrubicin] (0.5 nM),97.2
13,COc1cc2nccc(Oc3ccc(NC(=O)Nc4cc(C)on4)c(Cl)c3)c2cc1OC [Tivozanib] (10 nM),98.2
14,CCN(CC)CCCC(C)Nc1c2ccc(Cl)cc2nc2ccc(OC)cc12 (stereo not given) [Mepacrine] (5 nM),95.6
15,CCCS(=O)(=O)Nc1ccc(F)c(C(=O)c2c[nH]c3ncc(-c4ccc(Cl)cc4)cc23)c1F [Vemurafenib] (10 nM),99.6
16,CCCS(=O)(=O)Nc1ccc(F)c(C(=O)c2c[nH]c3ncc(-c4ccc(Cl)cc4)cc23)c1F [Vemurafenib] (1 nM),95.6
17,CC1=C(/C=C/C(C)=C/C=C/C(C)=C/C(=O)O)C(C)(C)CCC1 [Tretinoin] (10 nM),102
18,Cc1ccc(-c2cc(C(F)(F)F)nn2-c2ccc(S(N)(=O)=O)cc2)cc1 [Celecoxib] (1 nM),93.6
19,Oc1ncc(N(CCCl)CCCl)c(O)n1 [Uracil mustard] (1 nM),105
20,Nc1ccccc1NC(=O)c1ccc(CNC(=O)OCc2cccnc2)cc1 [Entinostat] (1 nM),95.6
21,C=CC(=O)Nc1cc2c(Nc3ccc(F)c(Cl)c3)ncnc2cc1OCCCN1CCOCC1 [Canertinib] (1 nM),93.3

# Tested on: MDA-MB-231
# Assay: as above
# Details: incubation time: 72 h
# Method in brief: as §1
row,Structure (SMILES),normalised response [%]
1,C=CC(=O)N1CCC[C@@H](n2nc(-c3ccc(Oc4ccccc4)cc3)c3c(N)ncnc32)C1 [Ibrutinib] (0.1 nM),102
2,Nc1nc2[nH]cc(CCc3ccc(C(=O)N[C@@H](CCC(=O)O)C(=O)O)cc3)c2c(=O)[nH]1 [Pemetrexed] (1 nM),97.4
3,COc1cc2nccc(Oc3ccc(NC(=O)Nc4cc(C)on4)c(Cl)c3)c2cc1OC [Tivozanib] (1 nM),98.9
4,COc1cc2c(NC3CCN(C(C)C)CC3)nc(C3CCCCC3)nc2cc1OCCCN1CCCC1 [UNC0638] (1 nM),93.3
5,CNC(=O)c1cc(Oc2ccc(NC(=O)Nc3cc(C(C)(C)C)nn3-c3ccc4ncccc4c3)c(F)c2)ccn1 [Rebastinib] (0.1 nM),101
6,N#Cc1ccc(C(c2ccc(C#N)cc2)n2cncn2)cc1 [Letrozole] (1 nM),98.2
7,CC[C@H](Nc1ncnc2[nH]cnc12)c1nc2cccc(F)c2c(=O)n1-c1ccccc1 [GS-1101] (1 nM),98.5
8,O=C(O)C(=O)O.[NH-][C@@H]1CCCC[C@H]1[NH-].[Pt+2] [Oxaliplatin] (10 nM),92.7
9,C=CC(=O)Nc1cc2c(Nc3ccc(F)c(Cl)c3)ncnc2cc1OCCCN1CCOCC1 [Canertinib] (10 nM),106
10,CC(=O)Nc1cccc(-n2c(=O)n(C3CC3)c(=O)c3c(Nc4ccc(I)cc4F)n(C)c(=O)c(C)c32)c1 [Trametinib] (0.25 nM),107
11,C=CC(=O)N1CCC[C@@H](n2nc(-c3ccc(Oc4ccccc4)cc3)c3c(N)ncnc32)C1 [Ibrutinib] (1 nM),105
12,CCCCC(=O)OCC(=O)[C@]1(O)Cc2c(O)c3c(c(O)c2[C@@H](O[C@H]2C[C@H](NC(=O)C(F)(F)F)[C@H](O)[C@H](C)O2)C1)C(=O)c1c(OC)cccc1C3=O [Valrubicin] (0.5 nM),99.6
13,COc1cc2nccc(Oc3ccc(NC(=O)Nc4cc(C)on4)c(Cl)c3)c2cc1OC [Tivozanib] (10 nM),98.5
14,CCN(CC)CCCC(C)Nc1c2ccc(Cl)cc2nc2ccc(OC)cc12 (stereo not given) [Mepacrine] (5 nM),99.8
15,CCCS(=O)(=O)Nc1ccc(F)c(C(=O)c2c[nH]c3ncc(-c4ccc(Cl)cc4)cc23)c1F [Vemurafenib] (10 nM),91.3
16,CCCS(=O)(=O)Nc1ccc(F)c(C(=O)c2c[nH]c3ncc(-c4ccc(Cl)cc4)cc23)c1F [Vemurafenib] (1 nM),95.9
17,CC1=C(/C=C/C(C)=C/C=C/C(C)=C/C(=O)O)C(C)(C)CCC1 [Tretinoin] (10 nM),101
18,Cc1ccc(-c2cc(C(F)(F)F)nn2-c2ccc(S(N)(=O)=O)cc2)cc1 [Celecoxib] (1 nM),98
19,Oc1ncc(N(CCCl)CCCl)c(O)n1 [Uracil mustard] (1 nM),97.2
20,Nc1ccccc1NC(=O)c1ccc(CNC(=O)OCc2cccnc2)cc1 [Entinostat] (1 nM),102
21,C=CC(=O)Nc1cc2c(Nc3ccc(F)c(Cl)c3)ncnc2cc1OCCCN1CCOCC1 [Canertinib] (1 nM),104

# Tested on: CAL-51
# Assay: as above
# Details: incubation time: 72 h
# Method in brief: as §1
row,Structure (SMILES),normalised response [%]
1,C=CC(=O)N1CCC[C@@H](n2nc(-c3ccc(Oc4ccccc4)cc3)c3c(N)ncnc32)C1 [Ibrutinib] (0.1 nM),99.3
2,Nc1nc2[nH]cc(CCc3ccc(C(=O)N[C@@H](CCC(=O)O)C(=O)O)cc3)c2c(=O)[nH]1 [Pemetrexed] (1 nM),90
3,COc1cc2nccc(Oc3ccc(NC(=O)Nc4cc(C)on4)c(Cl)c3)c2cc1OC [Tivozanib] (1 nM),108
4,COc1cc2c(NC3CCN(C(C)C)CC3)nc(C3CCCCC3)nc2cc1OCCCN1CCCC1 [UNC0638] (1 nM),117
5,CNC(=O)c1cc(Oc2ccc(NC(=O)Nc3cc(C(C)(C)C)nn3-c3ccc4ncccc4c3)c(F)c2)ccn1 [Rebastinib] (0.1 nM),122
